Several values for one entry are separate records, joined by “and”; a condition that tells them apart may be missing. Equal entries are not always repeated. Inconclusive results and toxic doses are left out. How the source made its calls: active means survival T/C of 150% or more; inactive means T/C below 125% in these data.
Tested on: P388 leukemia ip, CD2F1 mice, survival T/C
Assay: NCI In Vivo Anticancer Drug Screen. Data for tumor model P388 Leukemia (intraperitoneal) in CD2F1 (CDF1) mice
Details: endpoint: median survival time, higher = longer survival
Summary of the method: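 Mice carrying the transplanted tumor received test compound or vehicle. Survival was recorded in each group, and the value is the treated-group measurement divided by that of the vehicle-treated control group.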

Measured: T/C

O=NN(CCCl)C(=O)NCCCl
active: dose: 2.0 mg/kg/injection, schedule: Q01DX009 (ip), vehicle: other 163 % of control and 175 % of control | dose: 2.0 mg/kg/injection, schedule: Q01DX009 (ip), vehicle: saline with Tween-80 173 % of control | dose: 2.5 mg/kg/injection, schedule: Q04DX003 (iv), vehicle: saline + alcohol 152 % of control | dose: 3.24 mg/kg/injection, schedule: Q04DX003 (ip), vehicle: saline + alcohol 208 % of control | dose: 3.3 mg/kg/injection, schedule: Q01DX005 (ip), vehicle: Klucel (hydroxypropylcellulose) (HPC) 267 % of control | dose: 3.3 mg/kg/injection, schedule: Q01DX005 (ip), vehicle: saline + alcohol 250 % of control and 265 % of control | dose: 3.3 mg/kg/injection, schedule: Q01DX009 (ip), vehicle: saline + alcohol 183 % of control | dose: 3.75 mg/kg/injection, schedule: Q04DX003 (ip), vehicle: saline 176 % of control | dose: 3.89 mg/kg/injection, schedule: Q04DX003 (ip), vehicle: saline + alcohol 178 % of control | dose: 4.0 mg/kg/injection, schedule: Q01DX005 (ip), vehicle: saline + alcohol 170 % of control | dose: 4.0 mg/kg/injection, schedule: Q01DX009 (ip), vehicle: other 215 % of control and 287 % of control | dose: 4.0 mg/kg/injection, schedule: Q01DX009 (ip), vehicle: saline with Tween-80 262 % of control | dose: 4.4 mg/kg/injection, schedule: Q01DX005 (ip), vehicle: saline + alcohol 222 % of control | dose: 5.0 mg/kg/injection, schedule: Q04DX003 (ip), vehicle: saline + alcohol 206 % of control | dose: 5.0 mg/kg/injection, schedule: Q04DX003 (iv), vehicle: saline + alcohol 177 % of control | dose: 5.4 mg/kg/injection, schedule: Q04DX003 (ip), vehicle: saline + alcohol 185 % of control | dose: 6.48 mg/kg/injection, schedule: Q04DX002 (ip), vehicle: saline + alcohol 163 % of control and 169 % of control | dose: 6.48 mg/kg/injection, schedule: Q04DX003 (ip), vehicle: saline + alcohol 219 % of control | dose: 6.6 mg/kg/injection, schedule: Q01DX005 (ip), vehicle: saline + alcohol 305 % of control | dose: 7.5 mg/kg/injection, schedule: Q01DX001 (iv), vehicle: saline + alcohol 164 % of control | dose: 7.5 mg/kg/injection, schedule: Q04DX003 (ip), vehicle: saline 219 % of control | dose: 8.0 mg/kg/injection, schedule: Q01DX001 (ip), vehicle: Klucel (hydroxypropylcellulose) (HPC) 171 % of control | dose: 8.0 mg/kg/injection, schedule: Q01DX001 (ip), vehicle: suspension in saline 166 % of control | dose: 8.0 mg/kg/injection, schedule: Q01DX001 (ip), vehicle: water 200 % of control | dose: 8.0 mg/kg/injection, schedule: Q01DX005 (ip), vehicle: saline + alcohol 254 % of control | dose: 8.0 mg/kg/injection, schedule: Q01DX009 (ip), vehicle: other 264 % of control and 370 % of control | dose: 8.0 mg/kg/injection, schedule: Q01DX009 (ip), vehicle: saline with Tween-80 297 % of control | dose: 9.0 mg/kg/injection, schedule: Q04DX003 (ip), vehicle: saline + alcohol 180 % of control | dose: 10.0 mg/kg/injection, schedule: Q01DX009 (ip), vehicle: saline 240 % of control | dose: 10.0 mg/kg/injection, schedule: Q04DX003 (ip), vehicle: saline + alcohol 320 % of control | dose: 10.0 mg/kg/injection, schedule: Q04DX003 (iv), vehicle: saline + alcohol 265 % of control | dose: 10.8 mg/kg/injection, schedule: Q04DX002 (ip), vehicle: saline + alcohol 200 % of control and 206 % of control | dose: 10.8 mg/kg/injection, schedule: Q04DX003 (ip), vehicle: saline + alcohol 295 % of control | dose: 12.5 mg/kg/injection, schedule: Q01DX005 (ip), vehicle: saline with Tween-80 275 % of control and 315 % of control | dose: 15.0 mg/kg/injection, schedule: Q01DX001 (iv), vehicle: saline + alcohol 222 % of control | dose: 15.0 mg/kg/injection, schedule: Q01DX009 (ip), vehicle: saline 300 % of control | dose: 15.0 mg/kg/injection, schedule: Q04DX003 (ip), vehicle: saline + alcohol 336 % of control | dose: 15.0 mg/kg/injection, schedule: Q04DX003 (ip), vehicle: saline 355 % of control | dose: 16.0 mg/kg/injection, schedule: Q01DX001 (ip), vehicle: Klucel (hydroxypropylcellulose) (HPC) 210 % of control | dose: 16.0 mg/kg/injection, schedule: Q01DX001 (ip), vehicle: saline with Tween-80 192 % of control and 240 % of control | dose: 16.0 mg/kg/injection, schedule: Q01DX001 (ip), vehicle: suspension in saline 186 % of control | dose: 16.0 mg/kg/injection, schedule: Q01DX001 (ip), vehicle: water 429 % of control | dose: 16.0 mg/kg/injection, schedule: Q01DX001 (oral), vehicle: saline with Tween-80 163 % of control | dose: 16.0 mg/kg/injection, schedule: Q01DX005 (ip), vehicle: saline + alcohol 409 % of control | dose: 18.0 mg/kg/injection, schedule: Q04DX002 (ip), vehicle: saline + alcohol 250 % of control and 254 % of control | dose: 18.0 mg/kg/injection, schedule: Q04DX003 (ip), vehicle: saline + alcohol 419 % of control | dose: 20.0 mg/kg/injection, schedule: Q01DX001 (ip), vehicle: Klucel (hydroxypropylcellulose) (HPC) 241 % of control | dose: 20.0 mg/kg/injection, schedule: Q04DX003 (ip), vehicle: saline + alcohol 165 % of control | dose: 20.0 mg/kg/injection, schedule: Q04DX003 (iv), vehicle: saline + alcohol 291 % of control | dose: 24.0 mg/kg/injection, schedule: Q01DX001 (ip), vehicle: saline 230 % of control | dose: 25.0 mg/kg/injection, schedule: Q01DX005 (ip), vehicle: saline with Tween-80 184 % of control | dose: 25.0 mg/kg/injection, schedule: Q04DX003 (ip), vehicle: saline + alcohol 233 % of control | dose: 30.0 mg/kg/injection, schedule: Q01DX001 (iv), vehicle: saline + alcohol 352 % of control | dose: 30.0 mg/kg/injection, schedule: Q04DX002 (ip), vehicle: saline + alcohol 416 % of control and 441 % of control | dose: 30.0 mg/kg/injection, schedule: Q04DX003 (ip), vehicle: saline + alcohol 166 % of control | dose: 30.0 mg/kg/injection, schedule: Q04DX003 (ip), vehicle: saline 441 % of control | dose: 31.25 mg/kg/injection, schedule: Q01DX001 (ip), vehicle: saline with Tween-80 275 % of control | dose: 32.0 mg/kg/injection, schedule: Q01DX001 (ip), vehicle: Klucel (hydroxypropylcellulose) (HPC) 269 % of control | dose: 32.0 mg/kg/injection, schedule: Q01DX001 (ip), vehicle: saline with Tween-80 272 % of control and 588 % of control | dose: 32.0 mg/kg/injection, schedule: Q01DX001 (ip), vehicle: saline 606 % of control | dose: 32.0 mg/kg/injection, schedule: Q01DX001 (ip), vehicle: suspension in saline 289 % of control | dose: 32.0 mg/kg/injection, schedule: Q01DX001 (ip), vehicle: water 429 % of control | dose: 32.0 mg/kg/injection, schedule: Q01DX001 (oral), vehicle: saline with Tween-80 227 % of control | dose: 40.0 mg/kg/injection, schedule: Q01DX001 (ip), vehicle: Klucel (hydroxypropylcellulose) (HPC) 267 % of control | dose: 62.5 mg/kg/injection, schedule: Q01DX001 (ip), vehicle: saline with Tween-80 275 % of control and 297 % of control | dose: 64.0 mg/kg/injection, schedule: Q01DX001 (ip), vehicle: suspension in saline 161 % of control | dose: 80.0 mg/kg/injection, schedule: Q01DX001 (ip), vehicle: Klucel (hydroxypropylcellulose) (HPC) 267 % of control
inactive: dose: 1.0 mg/kg/injection, schedule: Q01DX001 (ip), vehicle: Klucel (hydroxypropylcellulose) (HPC) 122 % of control | dose: 1.0 mg/kg/injection, schedule: Q01DX001 (ip), vehicle: saline with Tween-80 115 % of control | dose: 1.0 mg/kg/injection, schedule: Q01DX001 (ip), vehicle: suspension in saline 107 % of control | dose: 1.0 mg/kg/injection, schedule: Q01DX005 (ip), vehicle: saline + alcohol 112 % of control | dose: 2.0 mg/kg/injection, schedule: Q01DX001 (ip), vehicle: Klucel (hydroxypropylcellulose) (HPC) 112 % of control | dose: 2.0 mg/kg/injection, schedule: Q01DX001 (ip), vehicle: saline with Tween-80 107 % of control | dose: 2.0 mg/kg/injection, schedule: Q01DX001 (ip), vehicle: suspension in saline 117 % of control | dose: 4.0 mg/kg/injection, schedule: Q01DX001 (ip), vehicle: saline + alcohol 123 % of control | dose: 10.0 mg/kg/injection, schedule: Q01DX005 (ip), vehicle: Klucel (hydroxypropylcellulose) (HPC) 123 % of control | dose: 10.0 mg/kg/injection, schedule: Q01DX009 (ip), vehicle: Klucel (hydroxypropylcellulose) (HPC) 98 % of control | dose: 16.0 mg/kg/injection, schedule: Q01DX009 (ip), vehicle: other 111 % of control and 120 % of control | dose: 16.0 mg/kg/injection, schedule: Q01DX009 (ip), vehicle: saline with Tween-80 118 % of control | dose: 30.0 mg/kg/injection, schedule: Q01DX009 (ip), vehicle: saline 110 % of control | dose: 64.0 mg/kg/injection, schedule: Q01DX001 (ip), vehicle: saline with Tween-80 107 % of control and 58 % of control | dose: 64.0 mg/kg/injection, schedule: Q01DX001 (oral), vehicle: saline with Tween-80 118 % of control | dose: 128.0 mg/kg/injection, schedule: Q01DX001 (ip), vehicle: Klucel (hydroxypropylcellulose) (HPC) 98 % of control | dose: 128.0 mg/kg/injection, schedule: Q01DX001 (ip), vehicle: saline with Tween-80 98 % of control and 58 % of control | dose: 128.0 mg/kg/injection, schedule: Q01DX001 (ip), vehicle: suspension in saline 107 % of control
